Laboratory results as given in patent publication US7592358B2 (Boehringer Ingelheim International GmbH, priority 2004, dated 2009).

Target: T1, hMCH-1R (Homo sapiens, UniProt Q99705)
T1 construct: expressed in transfected cells; host or cells: CHO/Galpha16 cells
Test: MCH-1 receptor binding test
Details: ^125I-MCH binding to membranes from CHO/Galpha16 cells stably transfected with human hMCH-1R
Protocol: Membranes from CHO/Galpha16 cells stably transfected with human hMCH-1R are resuspended using a syringe (needle 0.6×25 mm) and diluted in test buffer (50 mM HEPES, 10 mM MgCl2, 2 mM EGTA, pH 7.00; 0.1% bovine serum albumin (protease-free), 0.021% bacitracin, 1 μg/mL aprotinin, 1 μg/mL leupeptin and 1 μM phosphoramidone) to a concentration of 5 to 15 μg/mL. […] After the incubation the reaction is filtered using a cell harvester through 0.5% PEI treated fiberglass filters (GF/B, Unifilter Packard). The membrane-bound radioactivity retained on the filter is then determined after the addition of scintillator substance (Packard Microscint 20) in a measuring device (TopCount of Packard). […] The analysis of the concentration binding curve is carried out on the assumption of one receptor binding site.

T1 sequence (Q99705 whole entry): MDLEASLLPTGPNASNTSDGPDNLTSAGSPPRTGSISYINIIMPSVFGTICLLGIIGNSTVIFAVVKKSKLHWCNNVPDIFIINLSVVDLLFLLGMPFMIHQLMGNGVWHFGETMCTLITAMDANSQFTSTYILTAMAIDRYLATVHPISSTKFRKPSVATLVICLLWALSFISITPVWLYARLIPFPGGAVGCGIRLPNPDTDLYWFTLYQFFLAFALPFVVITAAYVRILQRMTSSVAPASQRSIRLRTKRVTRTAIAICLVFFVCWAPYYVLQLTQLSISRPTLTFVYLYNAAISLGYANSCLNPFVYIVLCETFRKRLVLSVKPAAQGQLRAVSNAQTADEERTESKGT

Row | Structure (SMILES) | IC50
1 | CC1(O)CCN(Cc2cc3cc(C#Cc4ccc(-c5ccc(Cl)cc5)cn4)ccc3s2)CC1 [Example 22.3, 1-{5-[5-(4-chlorophenyl)pyridin-2-ylethynyl]benzo[b]thiophen-2-ylmethyl}-4-methylpiperidin-4-ol] | 31 nM
2 | Cc1cc(C#Cc2ccc(-c3ccc(Cl)cc3)cn2)ccc1OCCN(C1CCCCC1)C1CCCC1 [Example 1.9, (2-{4-[5-(4-chlorophenyl)pyridin-2-ylethynyl]-2-methylphenoxy}ethyl)cyclohexylcyclopentylamine] | 6.2 nM
